Positions of bridges follow the written chain, without caps; N, C: chain ends. Non-standard residues stand in square brackets, D forms with d. Residues, ends and D or L forms follow the SMILES beside them. ξ: configuration not given here. Bta = N[C@@H](Cc1csc2ccccc12)C(=O)O; Hyp = O=C(O)[C@@H]1C[C@@H](O)CN1; NMeNle = CCCC[C@H](NC)C(=O)O; NMeM = CN[C@@H](CCSC)C(=O)O; NMeA = CN[C@@H](C)C(=O)O; Dap = NC[C@H](N)C(=O)O; ξC = NC(CS)C(=O)O
How the values were obtained:
Human PD-L1/PD-1 = biological target: T1, Human PD-L1/PD-1 (Homo sapiens, UniProt Q9NZQ7); test: HTRF PD-1-Ig/PD-L1-His binding assay (human PD-L1); conditions: cluster symbol; read-out: HTRF IC50 cluster
T1 construct: made in house; host or cells: HEK293T
Summary of the method: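 Soluble PD-1-Ig binding to PD-L1-His measured by HTRF in dPBS with 0.1% BSA and 0.05% Tween-20. Detection used europium cryptate anti-Ig antibody (1 nM final) and APC anti-His antibody (20 nM final) added on top of the binding reaction.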

[1] = biological target: T2, LK35.2-hPD-L1 cells / PE-labeled PD-1-Ig (Homo sapiens, UniProt Q9NZQ7); test: LK35.2-hPD-L1 cell binding high-content screening assay; type: cell-based; conditions: cell binding assay, cell line not given; cluster symbol; read-out: CBA IC50 cluster
T2 construct: expressed in transfected cells; host or cells: LK35.2 mouse B cell line
Summary of the method: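 Compound effect on PD-1/PD-L1 binding is measured by imaging cell-associated phycoerythrin signal. Human PD-1-Ig (PE on Ig tag, 1 nM final) is applied with compound to a murine B cell line overexpressing human PD-L1 for 1 h at 37 °C in serum-containing RPMI.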

T1 sequence (Q9NZQ7 with tags, fused parts or gaps): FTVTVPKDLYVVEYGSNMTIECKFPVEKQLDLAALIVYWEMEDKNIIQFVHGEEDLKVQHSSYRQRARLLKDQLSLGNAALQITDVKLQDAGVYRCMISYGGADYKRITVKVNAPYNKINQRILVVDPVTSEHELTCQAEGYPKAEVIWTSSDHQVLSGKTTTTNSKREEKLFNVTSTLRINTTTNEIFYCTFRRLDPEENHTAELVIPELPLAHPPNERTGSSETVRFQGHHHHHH
T2 sequence (Q9NZQ7 19-290): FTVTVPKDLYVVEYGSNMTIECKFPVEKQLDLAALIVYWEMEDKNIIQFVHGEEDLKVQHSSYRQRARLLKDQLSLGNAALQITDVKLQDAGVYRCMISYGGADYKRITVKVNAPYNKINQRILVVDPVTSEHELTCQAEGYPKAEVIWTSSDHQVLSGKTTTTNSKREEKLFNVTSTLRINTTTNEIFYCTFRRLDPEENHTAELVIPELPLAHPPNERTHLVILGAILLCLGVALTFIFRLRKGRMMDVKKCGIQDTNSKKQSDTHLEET

SMILES | IC50 (Human PD-L1/PD-1) [nM] | IC50 [1] [nM]
CCCC[C@H]1C(=O)N(C)[C@@H](CCSC)C(=O)N[C@@H](CCCNC(=N)N)C(=O)NC(C(=O)NCC(N)=O)CSCC(=O)N[C@@H](Cc2ccc(O)cc2)C(=O)N(C)[C@@H](C)C(=O)N[C@@H](CC(N)=O)C(=O)N2CCC[C@H]2C(=O)N[C@@H](CN)C(=O)N[C@@H](CC(C)C)C(=O)N2CCC[C@H]2C(=O)N[C@@H](Cc2c[nH]c3ccccc23)C(=O)N[C@@H](CO)C(=O)N[C@@H](Cc2csc3ccccc23)C(=O)N1C (stereo partly drawn) [Example 9082] ({CH2CO}-Y[NMeA]NP[Dap]LPWS[Bta][NMeNle][NMeM]R[ξC]G-NH2; thioether N-14) | 0.385 to 6.74 | 0.158 to 4.71
CCCC[C@H]1C(=O)N(C)[C@@H](CCSC)C(=O)N[C@@H](C)C(=O)NC(C(=O)NCC(N)=O)CSCC(=O)N[C@@H](Cc2ccc(O)cc2)C(=O)N(C)[C@@H](C)C(=O)N[C@@H](CC(N)=O)C(=O)N2CCC[C@H]2C(=O)N[C@@H](CN)C(=O)N[C@@H](CC(C)C)C(=O)N2CCC[C@H]2C(=O)N[C@@H](Cc2c[nH]c3ccccc23)C(=O)N[C@@H](CO)C(=O)N[C@@H](Cc2c[nH]c3ccccc23)C(=O)N1C (stereo partly drawn) [Example 9085] ({CH2CO}-Y[NMeA]NP[Dap]LPWSW[NMeNle][NMeM]A[ξC]G-NH2; thioether N-14) | 0.385 to 6.74 | 4.78 to 72.9
CCCC[C@H]1C(=O)N(C)[C@@H](CCSC)C(=O)N[C@@H](C)C(=O)NC(C(=O)NCC(N)=O)CSCC(=O)N[C@@H](Cc2ccc(O)cc2)C(=O)N(C)[C@@H](C)C(=O)N[C@@H](CC(N)=O)C(=O)N2CCC[C@H]2C(=O)N[C@@H](CN)C(=O)N[C@@H](CC(C)C)C(=O)N2CCC[C@H]2C(=O)N[C@@H](Cc2c[nH]c3ccccc23)C(=O)N[C@@H](CO)C(=O)N[C@@H](Cc2csc3ccccc23)C(=O)N1C (stereo partly drawn) [Example 9086] ({CH2CO}-Y[NMeA]NP[Dap]LPWS[Bta][NMeNle][NMeM]A[ξC]G-NH2; thioether N-14) | 0.385 to 6.74 | 0.158 to 4.71
CCCC[C@H]1C(=O)N(C)[C@@H](CCSC)C(=O)N[C@@H](C)C(=O)NC(C(=O)NCC(N)=O)CSCC(=O)N[C@@H](Cc2ccc(O)cc2)C(=O)N(C)[C@@H](C)C(=O)N[C@@H](CC(N)=O)C(=O)N2CCC[C@H]2C(=O)N[C@@H](CN)C(=O)N[C@@H](CC(C)C)C(=O)N2C[C@H](O)C[C@H]2C(=O)N[C@@H](Cc2c[nH]c3ccccc23)C(=O)N[C@@H](CO)C(=O)N[C@@H](Cc2csc3ccccc23)C(=O)N1C (stereo partly drawn) [Example 9088] ({CH2CO}-Y[NMeA]NP[Dap]L[Hyp]WS[Bta][NMeNle][NMeM]A[ξC]G-NH2; thioether N-14) | 0.385 to 6.74 | 0.158 to 4.71
CCCC[C@H]1C(=O)N[C@@H](CCCNC(=N)N)C(=O)NC(C(=O)NCC(N)=O)CSCC(=O)N[C@@H](Cc2ccc(O)cc2)C(=O)N(C)[C@@H](C)C(=O)N[C@@H](CC(N)=O)C(=O)N2CCC[C@H]2C(=O)N[C@@H](CN)C(=O)N[C@@H](CC(C)C)C(=O)N2CCC[C@H]2C(=O)N[C@@H](Cc2c[nH]c3ccccc23)C(=O)N[C@@H](CO)C(=O)N[C@@H](Cc2csc3ccccc23)C(=O)N(C)[C@@H](CCSC)C(=O)N1C (stereo partly drawn) [Example 9090] ({CH2CO}-Y[NMeA]NP[Dap]LPWS[Bta][NMeM][NMeNle]R[ξC]G-NH2; thioether N-14) | 0.385 to 6.74 | 0.158 to 4.71
CCCC[C@H]1C(=O)N[C@@H](C)C(=O)NC(C(=O)NCC(N)=O)CSCC(=O)N[C@@H](Cc2ccc(O)cc2)C(=O)N(C)[C@@H](C)C(=O)N[C@@H](CC(N)=O)C(=O)N2CCC[C@H]2C(=O)N[C@@H](CN)C(=O)N[C@@H](CC(C)C)C(=O)N2CCC[C@H]2C(=O)N[C@@H](Cc2c[nH]c3ccccc23)C(=O)N[C@@H](CO)C(=O)N[C@@H](Cc2c[nH]c3ccccc23)C(=O)N(C)[C@@H](CCSC)C(=O)N1C (stereo partly drawn) [Example 9093] ({CH2CO}-Y[NMeA]NP[Dap]LPWSW[NMeM][NMeNle]A[ξC]G-NH2; thioether N-14) | 6.76 to 30.3 | 4.78 to 72.9
CCCC[C@H]1C(=O)N[C@@H](C)C(=O)NC(C(=O)NCC(N)=O)CSCC(=O)N[C@@H](Cc2ccc(O)cc2)C(=O)N(C)[C@@H](C)C(=O)N[C@@H](CC(N)=O)C(=O)N2CCC[C@H]2C(=O)N[C@@H](CN)C(=O)N[C@@H](CC(C)C)C(=O)N2CCC[C@H]2C(=O)N[C@@H](Cc2c[nH]c3ccccc23)C(=O)N[C@@H](CO)C(=O)N[C@@H](Cc2csc3ccccc23)C(=O)N(C)[C@@H](CCSC)C(=O)N1C (stereo partly drawn) [Example 9094] ({CH2CO}-Y[NMeA]NP[Dap]LPWS[Bta][NMeM][NMeNle]A[ξC]G-NH2; thioether N-14) | 0.385 to 6.74 | 4.78 to 72.9
CCCC[C@H]1C(=O)N[C@@H](C)C(=O)NC(C(=O)NCC(N)=O)CSCC(=O)N[C@@H](Cc2ccc(O)cc2)C(=O)N(C)[C@@H](C)C(=O)N[C@@H](CC(N)=O)C(=O)N2CCC[C@H]2C(=O)N[C@@H](CN)C(=O)N[C@@H](CC(C)C)C(=O)N2C[C@H](O)C[C@H]2C(=O)N[C@@H](Cc2c[nH]c3ccccc23)C(=O)N[C@@H](CO)C(=O)N[C@@H](Cc2csc3ccccc23)C(=O)N(C)[C@@H](CCSC)C(=O)N1C (stereo partly drawn) [Example 9096] ({CH2CO}-Y[NMeA]NP[Dap]L[Hyp]WS[Bta][NMeM][NMeNle]A[ξC]G-NH2; thioether N-14) | 0.385 to 6.74 | 0.158 to 4.71

Second part, the compound after the results:

IC50 (Human PD-L1/PD-1) [nM] | IC50 [1] [nM] | SMILES
0.385 to 6.74 | 0.158 to 4.71 | CCCC[C@H]1C(=O)N(C)[C@@H](CCSC)C(=O)N[C@@H](CCCNC(=N)N)C(=O)NC(C(=O)NCC(N)=O)CSCC(=O)N[C@@H](Cc2ccc(O)cc2)C(=O)N(C)[C@@H](C)C(=O)N[C@@H](CC(N)=O)C(=O)N2CCC[C@H]2C(=O)N[C@@H](CN)C(=O)N[C@@H](CC(C)C)C(=O)N2CCC[C@H]2C(=O)N[C@@H](Cc2c[nH]c3ccccc23)C(=O)N[C@@H](CO)C(=O)N[C@@H](Cc2c[nH]c3ccccc23)C(=O)N1C (stereo partly drawn) [Example 9081] ({CH2CO}-Y[NMeA]NP[Dap]LPWSW[NMeNle][NMeM]R[ξC]G-NH2; thioether N-14)
6.76 to 30.3 | 0.158 to 4.71 | CCCC[C@H]1C(=O)N(C)[C@@H](CCSC)C(=O)N[C@@H](CCCNC(=N)N)C(=O)NC(C(=O)NCC(N)=O)CSCC(=O)N[C@@H](Cc2ccc(O)cc2)C(=O)N(C)[C@@H](C)C(=O)N[C@@H](CC(N)=O)C(=O)N2CCC[C@H]2C(=O)N[C@@H](CN)C(=O)N[C@@H](CC(C)C)C(=O)N2C[C@H](O)C[C@H]2C(=O)N[C@@H](Cc2c[nH]c3ccccc23)C(=O)N[C@@H](CO)C(=O)N[C@@H](Cc2c[nH]c3ccccc23)C(=O)N1C (stereo partly drawn) [Example 9083] ({CH2CO}-Y[NMeA]NP[Dap]L[Hyp]WSW[NMeNle][NMeM]R[ξC]G-NH2; thioether N-14)
0.385 to 6.74 | 0.158 to 4.71 | CCCC[C@H]1C(=O)N(C)[C@@H](CCSC)C(=O)N[C@@H](CCCNC(=N)N)C(=O)NC(C(=O)NCC(N)=O)CSCC(=O)N[C@@H](Cc2ccc(O)cc2)C(=O)N(C)[C@@H](C)C(=O)N[C@@H](CC(N)=O)C(=O)N2CCC[C@H]2C(=O)N[C@@H](CN)C(=O)N[C@@H](CC(C)C)C(=O)N2C[C@H](O)C[C@H]2C(=O)N[C@@H](Cc2c[nH]c3ccccc23)C(=O)N[C@@H](CO)C(=O)N[C@@H](Cc2csc3ccccc23)C(=O)N1C (stereo partly drawn) [Example 9084] ({CH2CO}-Y[NMeA]NP[Dap]L[Hyp]WS[Bta][NMeNle][NMeM]R[ξC]G-NH2; thioether N-14)
0.385 to 6.74 | 0.158 to 4.71 | CCCC[C@H]1C(=O)N(C)[C@@H](CCSC)C(=O)N[C@@H](C)C(=O)NC(C(=O)NCC(N)=O)CSCC(=O)N[C@@H](Cc2ccc(O)cc2)C(=O)N(C)[C@@H](C)C(=O)N[C@@H](CC(N)=O)C(=O)N2CCC[C@H]2C(=O)N[C@@H](CN)C(=O)N[C@@H](CC(C)C)C(=O)N2C[C@H](O)C[C@H]2C(=O)N[C@@H](Cc2c[nH]c3ccccc23)C(=O)N[C@@H](CO)C(=O)N[C@@H](Cc2c[nH]c3ccccc23)C(=O)N1C (stereo partly drawn) [Example 9087]
0.385 to 6.74 | 0.158 to 4.71 | CCCC[C@H]1C(=O)N[C@@H](CCCNC(=N)N)C(=O)NC(C(=O)NCC(N)=O)CSCC(=O)N[C@@H](Cc2ccc(O)cc2)C(=O)N(C)[C@@H](C)C(=O)N[C@@H](CC(N)=O)C(=O)N2CCC[C@H]2C(=O)N[C@@H](CN)C(=O)N[C@@H](CC(C)C)C(=O)N2CCC[C@H]2C(=O)N[C@@H](Cc2c[nH]c3ccccc23)C(=O)N[C@@H](CO)C(=O)N[C@@H](Cc2c[nH]c3ccccc23)C(=O)N(C)[C@@H](CCSC)C(=O)N1C (stereo partly drawn) [Example 9089] ({CH2CO}-Y[NMeA]NP[Dap]LPWSW[NMeM][NMeNle]R[ξC]G-NH2; thioether N-14)
6.76 to 30.3 | 0.158 to 4.71 | CCCC[C@H]1C(=O)N[C@@H](CCCNC(=N)N)C(=O)NC(C(=O)NCC(N)=O)CSCC(=O)N[C@@H](Cc2ccc(O)cc2)C(=O)N(C)[C@@H](C)C(=O)N[C@@H](CC(N)=O)C(=O)N2CCC[C@H]2C(=O)N[C@@H](CN)C(=O)N[C@@H](CC(C)C)C(=O)N2C[C@H](O)C[C@H]2C(=O)N[C@@H](Cc2c[nH]c3ccccc23)C(=O)N[C@@H](CO)C(=O)N[C@@H](Cc2csc3ccccc23)C(=O)N(C)[C@@H](CCSC)C(=O)N1C (stereo partly drawn) [Example 9092] ({CH2CO}-Y[NMeA]NP[Dap]L[Hyp]WS[Bta][NMeM][NMeNle]R[ξC]G-NH2; thioether N-14)
0.385 to 6.74 | 4.78 to 72.9 | CCCC[C@H]1C(=O)N[C@@H](C)C(=O)NC(C(=O)NCC(N)=O)CSCC(=O)N[C@@H](Cc2ccc(O)cc2)C(=O)N(C)[C@@H](C)C(=O)N[C@@H](CC(N)=O)C(=O)N2CCC[C@H]2C(=O)N[C@@H](CN)C(=O)N[C@@H](CC(C)C)C(=O)N2C[C@H](O)C[C@H]2C(=O)N[C@@H](Cc2c[nH]c3ccccc23)C(=O)N[C@@H](CO)C(=O)N[C@@H](Cc2c[nH]c3ccccc23)C(=O)N(C)[C@@H](CCSC)C(=O)N1C (stereo partly drawn) [Example 9095]
